Key:
pSTAT3 (Tyr705) = experiment: Immunoblot of STAT3 phosphorylation in MM cells; assay type: cell-based, human; conditions: MM.1S, 10 and 20 μM, 10 hours, then IL-6 10 ng/mL 4 hours (FIG. 6G)
Procedure: MM cells were harvested and lysed using sodium dodecyl sulfate-polyacrylamide gel electrophoresis (SDS-PAGE) sample buffer containing 60 mM Tris-HCl, pH 6.8, 2% SDS, 10% glycerol, 0.005% bromophenol blue, 5 mM ethylenediaminetetraacetic acid, 5 mM NaF, 2 mM […], 1 mM phenylmethylsulfonyl fluoride (PMSF), 5 μg/mL leupeptin, and 5 μg/mL aprotinin; and then heated at 100° C. for 5 min. After the determination of protein concentration using DC protein assay (Bio-Rad, Hercules, Calif.), β-mercaptoethanol (β-ME) was added to the whole-cell lysates to a 2% final β-ME concentration. The whole-cell lysates were subjected to SDS-PAGE, transferred to nitrocellulose membranes (Bio-Rad, Hercules, Calif.) or polyvinylidene fluoride membranes (Millipore, Billerica, Mass.), and immunoblotted with anti-histone H3, -HDAC1, -HDAC2, -HDAC3, -Acetyl-histone H2A (Lysine 5) (Ac-H2AK5), -Acetyl-histone H2B (lysine 5) (Ac-H2 BK5), -Acetyl-histone H3 (lysine 9) (Ac-H3K9), -Acetyl-histone H4 (lysine 8) (Ac-H4K8), -glyceraldehyde-3-phosphate dehydrogenase (GAPDH), -poly (ADP-ribose) polymerase (PARP), -caspase-3, -caspase-8, -caspase-9, -Signal transducers and activators of transcription 3 (STAT3), -phospho-STAT3 (pSTAT3) (tyrosine 705), -pSTAT3 (serine 727), -p21, -Janus kinase 2 (JAK2), -acetylated-Lysine (Ac-K), and anti-phosphorylated-tyrosine antibodies (Abs; Cell Signaling Technology, Beverly, Mass.).
MM.1S, U266, and INA6 cells were cultured with DMSO control or LBH589 (50 and 100 nM) for 8 h.
MM.1S cells pretreated with or without 50 nM LBH589 for 8 hours were then treated with IL-6 (10 ng/mL) or BMSC culture supernatants (#1 and #2) for 15 minutes. Whole cell lysates were subjected to immunoblotting with anti-pSTAT3 (Tyr705) and STAT3 Abs.
In addition, INA-6 cells were cultured with DMSO control, LBH589 (50 nM), TSA (1 μM) or SAHA (2 μM) for 8 hours. Whole cell lysates were subjected to immunoblotting with anti-pSTAT3 (Tyr705), STAT3, and GAPDH Abs.
Whole cell lysates were subjected to immunoblotting with anti-pSTAT3 (Tyr705), -STAT3, -pERK1/2 (Thr202/204), and -ERK1/2 Abs (FIG. 6G).
See, e.g., Hideshima et al. Blood. 2006, 107:4053-4062. Since bortezomib upregulates activated STAT3 in head and neck squamous cell carcinoma (see, e.g., Li et al. Mol Cancer Ther 2009. 8:2211-2220), experiments were conducted to test whether bortezomib enhances p-STAT3 in MM cells. RPMI8226 cells were infected with Luc, HDAC1 (sh1), HDAC2 (sh1) or HDAC3 (sh1) shRNAs and then treated with or without bortezomib (5 nM) for 6 hours. Whole cell lysates were subjected to immunoblotting with anti-STAT3, -pSTAT3 (Tyr705), -pERK1/2 (Thr202/204) and -ERK1/2 Abs.

MM.1S xenograft = experiment: Subcutaneous MM.1S murine xenograft model; assay type: in vivo; conditions: SCID mice
Procedure: CB17 SCID mice (48-54 days old) were purchased from Charles River Laboratories (Wilmington, Mass.). All animal studies were conducted according to protocols approved by the Animal Ethics Committee of the Dana-Farber Cancer Institute. After irradiation (200cGy), mice were subcutaneously injected with 5×10^6 MM.1S cells in the right flank. […] Tumor size was measured every three days, and tumor volume was calculated with the formula: V=0.5 (a×b^2), where “a” is the long diameter of the tumor and “b” is the short diameter of the tumor. Mice were sacrificed when the tumor reached 2 cm in length or 2 cm^3 volume, or if mice appeared moribund to prevent unnecessary morbidity. Survival was evaluated from the first day of the treatment until death. […] These SCID mice were subcutaneously injected with 5×10^6 MM.1S cells. […] Tumor volume was calculated from caliper measurements twice weekly, and data represent mean±SD (FIG. 9A).

Nc1ccccc1NC(=O)c1cnccn1 [Compound 10, N-(2-aminophenyl)pyrazine-2-carboxamide]
p-STAT3 (pSTAT3 (Tyr705)): markedly downregulated p-STAT3 | MM tumor growth (tumor volume) (MM.1S xenograft; 15 and 50 mg/kg IP 5 days a week for 3 weeks, versus control, day 22 p<0.05 (FIG. 9A)): significantly inhibited MM tumor growth | tumor growth, combination with bortezomib (MM.1S xenograft; Compound 10 50 mg/kg + bortezomib 0.5 mg/kg sc twice a week, p<0.05): further enhanced either single agent activity
